In ChEMBL document CHEMBL1201862, “PubChem BioAssay data set” (2004):
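These data come from cells grown in 96-well plates and exposed to compound for 48 hours at five concentrations. Here, GI50 denotes the concentration required for 50% inhibition of growth.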 Activity calls are given as the source filed them. No stated cut-off is given here; in the data, active = GI50 up to about 1.1 µM and inactive = higher.

What was measured:
Assay in all cases: NCI tumour cell line growth inhibition, 48 h
A498 = test system: A498
A549 = test system: A549
DU-145 = test system: DU-145
HCT-15 = test system: HCT-15
HOP-62 = test system: HOP-62
HT-29 = test system: HT-29
Hs-578T = test system: Hs-578T
K562 = test system: K562
MCF7 = test system: MCF7
MDA-MB-231 = test system: MDA-MB-231
MDA-MB-435 = test system: MDA-MB-435
MDA-N = test system: MDA-N
SF-268 = test system: SF-268
SF-295 = test system: SF-295
SK-MEL-28 = test system: SK-MEL-28
SK-MEL-2 = test system: SK-MEL-2
SN12C = test system: SN12C
SNB-19 = test system: SNB-19
SW-620 = test system: SW-620
U-251 = test system: U-251

Row | Compound | GI50 (A498) | GI50 (A549) | GI50 (DU-145) | GI50 (HCT-15) | GI50 (HOP-62) | GI50 (HT-29) | GI50 (Hs-578T) | GI50 (K562) | GI50 (MCF7) | GI50 (MDA-MB-231) | GI50 (MDA-MB-435) | GI50 (MDA-N) | GI50 (SF-268) | GI50 (SF-295) | GI50 (SK-MEL-28) | GI50 (SK-MEL-2) | GI50 (SN12C) | GI50 (SNB-19) | GI50 (SW-620) | GI50 (U-251)
1 | CCn1c(-c2ccc(OC(C)=O)cc2)c(C)c2cc(OC(C)=O)ccc21 [ZINDOXIFENE] | 23.6 µM (inactive) | 15.4 µM (inactive) | 18.5 µM (inactive) | 3.79 µM | 21.3 µM (inactive) | 29.5 µM (inactive) | 13.9 µM (inactive) | 11.8 µM (inactive) | 18 µM (inactive) | 14.6 µM (inactive) | 12.5 µM (inactive) | 17.3 µM (inactive) | 16.6 µM (inactive) | 24 µM (inactive) | 16.5 µM (inactive) | 18.5 µM (inactive) | 27.5 µM (inactive) | 31 µM (inactive) | 23.4 µM (inactive) | 11.3 µM (inactive)
2 | CC1CSC(=S)N1C(=O)N1C(=S)SCC1C (stereo not given) | 27.5 µM (inactive) | 35.6 µM (inactive) | 19.5 µM (inactive) | 16.5 µM | 43.4 µM (inactive) | 27.4 µM (inactive) | 35.7 µM (inactive) | 20.1 µM (inactive) | 21.2 µM (inactive) | 22.2 µM (inactive) | 17.2 µM (inactive) | 19.6 µM (inactive) | 26.3 µM (inactive) | 45.8 µM (inactive) | 14.3 µM (inactive) | 21.3 µM (inactive) | 20.5 µM (inactive) | 63.8 µM (inactive) | 20.4 µM (inactive) | 18.2 µM (inactive)
3 | Nc1ccc(Oc2ccc(C34CC5CC6C3CC3CC4C(C5)C6(c4ccc(Oc5ccc(N)c(O)c5)cc4)C3)cc2)cc1O | 7.36 µM (inactive) | 1.9 µM (inactive) | 4.73 µM (inactive) | 3.44 µM | 4.78 µM (inactive) | 3.59 µM (inactive) | 17.2 µM (inactive) | 2.79 µM (inactive) | 4.55 µM (inactive) | 3.75 µM (inactive) | 3.83 µM (inactive) | 3.22 µM (inactive) | 3.33 µM (inactive) | 3.58 µM (inactive) | 7.06 µM (inactive) | 19.5 µM (inactive) | 1.72 µM (inactive) | 3.57 µM (inactive) | 4.25 µM (inactive) | 2.58 µM (inactive)
4 | COc1cc(C(c2ccc3c(c2)OCO3)N2C(=O)CCC2C(=O)O)cc(OC)c1OC (stereo not given) | > 100 µM (inactive) | > 100 µM (inactive) | > 100 µM (inactive) | > 100 µM | > 100 µM (inactive) | > 100 µM (inactive) | > 100 µM (inactive) | > 100 µM (inactive) | > 100 µM (inactive) | > 100 µM (inactive) | > 100 µM (inactive) | > 100 µM (inactive) | > 100 µM (inactive) | > 100 µM (inactive) | > 100 µM (inactive) | > 100 µM (inactive) | > 100 µM (inactive) | > 100 µM (inactive) | > 100 µM (inactive) | > 100 µM (inactive)
5 | COc1cc([C@@H]2c3cc4c(cc3[C@@H](OC3OC5CO[C@@H](c6cccs6)OC5C(O)C3O)[C@H]3COC(=O)[C@H]23)OCO4)cc(OC)c1O (stereo not given in full) | 0.394 µM (active) | 0.144 µM (active) | 0.324 µM (active) | 1.55 µM | 0.135 µM (active) | 1.61 µM (inactive) | 0.42 µM (active) | 0.724 µM (active) | 0.038 µM (active) | 1.12 µM (active) | 1.34 µM (inactive) | 1.03 µM (active) | 0.48 µM (active) | 0.144 µM (active) | 1.66 µM (inactive) | 1.09 µM (active) | 0.313 µM (active) | 0.299 µM (active) | 0.24 µM (active) | 0.147 µM (active)
6 | CC(=O)OCC1OC(N2C(c3ccccc3)=CC(c3ccco3)C(C#N)=C2S)C(OC(C)=O)C(OC(C)=O)C1OC(C)=O (stereo not given) | 15.2 µM (inactive) | 9.44 µM (inactive) | 19.7 µM (inactive) | > 100 µM | 6.27 µM (inactive) | 5.94 µM (inactive) | 2.17 µM (inactive) | 4.25 µM (inactive) | 25.5 µM (inactive) | 3.13 µM (inactive) | 8.11 µM (inactive) | 11.3 µM (inactive) | 4.63 µM (inactive) | 14.4 µM (inactive) | 8.79 µM (inactive) | 28.8 µM (inactive) | 4.22 µM (inactive) | 11.9 µM (inactive) | 1.36 µM (inactive) | 2.54 µM (inactive)
7 | COc1ccc(-n2c3c(c4c(CN(C)C)c(O)ccc42)C(=O)c2ccccc2C3=O)cc1 | 1.21 µM (inactive) | 4.68 µM (inactive) | 12.9 µM (inactive) | 3.1 µM | 2.02 µM (inactive) | 2.19 µM (inactive) | 30.5 µM (inactive) | 2.09 µM (inactive) | 7.18 µM (inactive) | 3.08 µM (inactive) | 6.93 µM (inactive) | 4.62 µM (inactive) | 10.1 µM (inactive) | 14.7 µM (inactive) | 3.38 µM (inactive) | 10 µM (inactive) | 2.82 µM (inactive) | 4.4 µM (inactive) | 2.07 µM (inactive) | 2.94 µM (inactive)
